Results reported in the supplement of paper PMC11061612.

Key:
Experiment in all cases: combination Emax (second highest fraction inhibited in the dose matrix, 72 h); higher = more inhibition; extreme values may be limits of the assay
[1] = system: COR-L279 (Small Cell Lung Carcinoma)
Procedure, shortened: (§1)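 Cell lines grown in DMEM/F12 or RPMI with 10% FBS were plated in 1536-well plates and held 24 hours at 37°C, 5% CO2 before 72 hours of exposure to two-drug dose matrices, with DMSO typically at 0.2%. CellTiter-Glo 2.0 luminescence gave viability, which was converted to inhibition. Vehicle wells were set to 0 and blank wells to 1. Combination Emax is the second-highest inhibition in the matrix, and Bliss excess is the observed combination effect minus the expected EA + EB − EA·EB, where EA and EB are the single-agent effects.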

[2] = system: DAN-G (Pancreatic Carcinoma)
Procedure, shortened: as §1

[3] = system: DMS-114 (Small Cell Lung Carcinoma)
Procedure, shortened: as §1

[4] = system: ESO51 (Esophageal Adenocarcinoma)
Procedure, shortened: as §1

[5] = system: H9 (T-Cell Non-Hodgkin's Lymphoma)
Procedure, shortened: as §1

[6] = system: HCC1187 (Breast Carcinoma)
Procedure, shortened: as §1

[7] = system: IM-95 (Gastric Carcinoma)
Procedure, shortened: as §1

[8] = system: KP-3 (Pancreatic Carcinoma)
Procedure, shortened: as §1

[9] = system: KY821 (Acute Myeloid Leukemia)
Procedure, shortened: as §1

[10] = system: MN-60 (B-Lymphoblastic Leukemia)
Procedure, shortened: as §1

[11] = system: MOLM-13 (Acute Myeloid Leukemia)
Procedure, shortened: as §1

NCI-H2731 (Mesothelioma) = system: NCI-H2731 (Mesothelioma)
Procedure, shortened: as §1

[12] = system: NCI-H526 (Small Cell Lung Carcinoma)
Procedure, shortened: as §1

[13] = system: NCI-H661 (Non-Small Cell Lung Carcinoma)
Procedure, shortened: as §1

[14] = system: PC-3 (Prostate Carcinoma)
Procedure, shortened: as §1

[15] = system: RPMI-8226 (Plasma Cell Myeloma)
Procedure, shortened: as §1

[16] = system: SK-GT-2 (Gastric Carcinoma)
Procedure, shortened: as §1

[17] = system: SNU-398 (Hepatocellular Carcinoma)
Procedure, shortened: as §1

[18] = system: SUP-B15 (B-Lymphoblastic Leukemia)
Procedure, shortened: as §1

[19] = system: VMRC-RCZ (Kidney Carcinoma)
Procedure, shortened: as §1

| SMILES | combination Emax [1] | combination Emax [2] | combination Emax [3] | combination Emax [4] | combination Emax [5] | combination Emax [6] | combination Emax [7] | combination Emax [8] | combination Emax [9] | combination Emax [10] | combination Emax [11] | combination Emax (NCI-H2731 (Mesothelioma)) | combination Emax [12] | combination Emax [13] | combination Emax [14] | combination Emax [15] | combination Emax [16] | combination Emax [17] | combination Emax [18] | combination Emax [19] |
| --- | --- | --- | --- | --- | --- | --- | --- | --- | --- | --- | --- | --- | --- | --- | --- | --- | --- | --- | --- | --- |
| C=CCn1c(=O)c2cnc(Nc3ccc(N4CCN(C)CC4)cc3)nc2n1-c1cccc(C(C)(C)O)n1 [AZD1775] + C1CN(CCC1(C(=O)N[C@@H](CCO)C2=CC=C(C=C2)Cl)N)C3=NC=NC4=C3C=CN4 [Capivasertib] (first compound max 3 µM, partner max 3 µM) | 0.818 | 0.848 | 0.649 | 0.814 | 0.95 | 0.936 | 0.655 | 0.28 | 0.994 | 0.555 | 1 | 0.416 | 0.907 | 0.648 | 0.394 | 0.822 | 0.83 | 0.786 | 0.954 | 0.359 |
| C=CCn1c(=O)c2cnc(Nc3ccc(N4CCN(C)CC4)cc3)nc2n1-c1cccc(C(C)(C)O)n1 [AZD1775] + O=C(c1cc(Cc2n[nH]c(=O)c3ccccc23)ccc1F)N1CCN(C(=O)C2CC2)CC1 [Olaparib] (first compound max 1 µM, partner max 10 µM) | 0.858 | 0.646 | 0.363 | 0.455 | 0.868 | 0.423 | 0.447 | 0.28 | 1 | 0.366 | 0.991 | 0.349 | 0.758 | 0.512 | 0.207 | 0.502 | 0.82 | 0.5 | 0.973 | 0.339 |
| CCN(CCO)CCCOc1ccc2c(Nc3cc(CC(=O)Nc4cccc(F)c4)[nH]n3)ncnc2c1 [AZD2811] + C=CCn1c(=O)c2cnc(Nc3ccc(N4CCN(C)CC4)cc3)nc2n1-c1cccc(C(C)(C)O)n1 [AZD1775] (first compound max 1 µM, partner max 1 µM) | 0.662 | 0.623 | 0.243 | 0.627 | 0.985 | 0.839 | 0.475 | 0.209 | 1 | 0.291 | 1 | 0.382 | 0.566 | 0.543 | 0.237 | 0.562 | 0.769 | 0.417 | 0.966 | 0.217 |
| CCN(CCO)CCCOc1ccc2c(Nc3cc(CC(=O)Nc4cccc(F)c4)[nH]n3)ncnc2c1 [AZD2811] + C[C@@H]1COCCN1C2=NC(=NC(=C2)C3(CC3)[S@](=N)(=O)C)C4=C5C=CNC5=NC=C4 [AZD6738] (first compound max 1 µM, 7x7, partner max 10 µM) | 0.832 | 0.648 | 0.435 | 0.751 | 0.977 | 0.846 | 0.312 | 0.368 | 0.968 | 0.477 | 1 | 0.308 | 0.634 | 0.441 | 0.431 | 0.967 | 0.289 | 0.485 | 0.914 | 0.279 |
| CCN(CCO)CCCOc1ccc2c(Nc3cc(CC(=O)Nc4cccc(F)c4)[nH]n3)ncnc2c1 [AZD2811] + O=C(c1cc(Cc2n[nH]c(=O)c3ccccc23)ccc1F)N1CCN(C(=O)C2CC2)CC1 [Olaparib] (first compound max 1 µM, 7x7, partner max 10 µM) | 0.945 | 0.218 | 0.177 | 0.118 | 0.71 | 0.824 | 0.362 | 0.144 | 0.455 | 0.301 | 1 | 0.226 | 0.642 | 0.155 | 0.179 | 0.491 | 0.203 | 0.365 | 0.976 | 0.195 |
| CN(CCO)CC[C@H](CSc1ccccc1)Nc1ccc(S(=O)(=O)NC(=O)c2ccc(N3CCC([C@@H](O)c4ccccc4-c4ccc(Cl)cc4)CC3)cc2)cc1S(=O)(=O)C(F)(F)F [AZD4320] + C1CN(CCC1(C(=O)N[C@@H](CCO)C2=CC=C(C=C2)Cl)N)C3=NC=NC4=C3C=CN4 [Capivasertib] (first compound max 1 µM, 7x7, partner max 3 µM) | 0.983 | 0.507 | 0.229 | 0.0266 | 0.986 | 0.146 | 0.658 | 0.0865 | 1 | 0.137 | 1 | 0.197 | 0.929 | 0.0615 | 0.231 | 0.925 | 0.403 | 0.0802 | 1 | 0.37 |
| CN(CCO)CC[C@H](CSc1ccccc1)Nc1ccc(S(=O)(=O)NC(=O)c2ccc(N3CCC([C@@H](O)c4ccccc4-c4ccc(Cl)cc4)CC3)cc2)cc1S(=O)(=O)C(F)(F)F [AZD4320] + C=CCn1c(=O)c2cnc(Nc3ccc(N4CCN(C)CC4)cc3)nc2n1-c1cccc(C(C)(C)O)n1 [AZD1775] (first compound max 1 µM, partner max 1 µM) | 1 | 0.904 | 0.373 | 0.775 | 1 | 0.549 | 0.791 | 0.314 | 1 | 0.292 | 1 | 0.328 | 0.972 | 0.613 | 0.204 | 0.997 | 0.983 | 0.739 | 1 | 0.39 |
| CN(CCO)CC[C@H](CSc1ccccc1)Nc1ccc(S(=O)(=O)NC(=O)c2ccc(N3CCC([C@@H](O)c4ccccc4-c4ccc(Cl)cc4)CC3)cc2)cc1S(=O)(=O)C(F)(F)F [AZD4320] + CCN(CCO)CCCOc1ccc2c(Nc3cc(CC(=O)Nc4cccc(F)c4)[nH]n3)ncnc2c1 [AZD2811] (first compound max 1 µM, 7x7, partner max 1 µM) | 1 | 0.355 | 0.247 | 0.233 | 0.978 | 0.914 | 0.859 | 0.0781 | 1 | 0.238 | 1 | 0.492 | 0.961 | 0.0831 | 0.366 | 0.986 | 0.554 | 0.593 | 1 | 0.149 |
| CN(CCO)CC[C@H](CSc1ccccc1)Nc1ccc(S(=O)(=O)NC(=O)c2ccc(N3CCC([C@@H](O)c4ccccc4-c4ccc(Cl)cc4)CC3)cc2)cc1S(=O)(=O)C(F)(F)F [AZD4320] + CN(C)CCCOc1ccc(-c2ccc3ncc4c(c3c2)n(C2CCOCC2)c(=O)n4C)cn1 [AZD0156] (first compound max 1 µM, 7x7, partner max 1 µM) | 0.983 | 0.346 | 0.12 | 0.193 | 0.996 | 0.154 | 0.69 | 0.0528 | 1 | 0.263 | 1 | 0.109 | 0.925 | 0.0831 | 0.241 | 0.949 | 0.154 | 0.191 | 1 | 0.13 |
| CN(CCO)CC[C@H](CSc1ccccc1)Nc1ccc(S(=O)(=O)NC(=O)c2ccc(N3CCC([C@@H](O)c4ccccc4-c4ccc(Cl)cc4)CC3)cc2)cc1S(=O)(=O)C(F)(F)F [AZD4320] + C[C@@H]1COCCN1C2=NC(=NC(=C2)C3(CC3)[S@](=N)(=O)C)C4=C5C=CNC5=NC=C4 [AZD6738] (first compound max 1 µM, 7x7, partner max 10 µM) | 1 | 0.765 | 0.592 | 0.861 | 1 | 0.536 | 0.778 | 0.486 | 1 | 0.51 | 1 | 0.328 | 0.977 | 0.674 | 0.584 | 1 | 0.633 | 0.77 | 1 | 0.566 |
| CN(CCO)CC[C@H](CSc1ccccc1)Nc1ccc(S(=O)(=O)NC(=O)c2ccc(N3CCC([C@@H](O)c4ccccc4-c4ccc(Cl)cc4)CC3)cc2)cc1S(=O)(=O)C(F)(F)F [AZD4320] + C[C@@H](Nc1cc(F)cc(F)c1)c1cc(C(=O)N(C)C)cc2c(=O)cc(N3CCOCC3)oc12 [AZD8186] (first compound max 1 µM, 7x7, partner max 3 µM) | 1 | 0.344 | 0.362 | 0.336 | 0.958 | 0.35 | 0.855 | 0.178 | 1 | 0.226 | 1 | 0.552 | 0.973 | 0.308 | 0.437 | 0.968 | 0.237 | 0.273 | 1 | 0.397 |
| CN(CCO)CC[C@H](CSc1ccccc1)Nc1ccc(S(=O)(=O)NC(=O)c2ccc(N3CCC([C@@H](O)c4ccccc4-c4ccc(Cl)cc4)CC3)cc2)cc1S(=O)(=O)C(F)(F)F [AZD4320] + Cc1cc2ncnn2cc1Nc1ncc2c(n1)n(C1CCOCC1)c(=O)n2C [AZD7648] (first compound max 1 µM, 7x7, partner max 10 µM) | 0.976 | 0.474 | 0.321 | 0.149 | 0.99 | 0.114 | 0.6 | 0.0376 | 1 | 0.226 | 1 | 0.117 | 0.908 | 0.0745 | 0.213 | 0.965 | 0.245 | 0.261 | 1 | 0.0798 |
